A short description of the series: chemical recovery from spiked human plasma; higher = better extraction. As to conditions: pooled human plasma.
Where [1] appears, read: extraction method: SPE only (HLB 96-well).
Where [2] appears, read: extraction method: PES+SPE (3 d PDMS equilibration then HLB SPE).
The mark [3] stands for this setting: extraction method: solvent precipitation (ACN + hexane).
The mark [4] stands for this setting: extraction method: SPE only (HLB 96-well), PES comparison experiment.

SMILES strings stand for the structures. ± gives the standard deviation.

For the compound `C#CCOS(=O)OC1CCCCC1Oc1ccc(C(C)(C)C)cc1` (stereo unspecified) [Propargite], the chemical recovery under setting [1] worked out at 42.4 ± 10%.
As for `CNC(=O)Oc1ccccc1OC(C)C` [Propoxur], the chemical recovery is, setting by setting: under setting [2], 33.3 ± 8.7%; under setting [1], 37.5 ± 0.59%; under setting [3], 46.7 ± 3.7%.
Consider `CCCN(CCC)C(=O)SCc1ccccc1` [Prosulfocarb], for which the chemical recovery by setting is: under setting [1], 33.6 ± 4.5%; under setting [4], 35.1 ± 6%; under setting [3], 72.6 ± 6.4%.
Take `CC1=NNC(=O)N(/N=C/c2cccnc2)C1` [Pymetrozine]: the chemical recovery runs as follows: under setting [1], 13.5 ± 3.4%; under setting [3], 75.4 ± 2.9%.
As to `Cc1cc(C)nc(Nc2ccccc2)n1` [Pyrimethanil], the chemical recovery turned out to be 51.1 ± 7.5% under setting [2], 31.2 ± 2.5% under setting [1] and 61.9 ± 3% under setting [3].
Taken in the same sequence, the figures for `[O-][n+]1cccc2ccccc21` [Quinoline N-oxide] were 42.6 ± 6%, 43.8 ± 0.64% and 76.1 ± 3.2%.
Taken in the same sequence, the figures for `CC(Oc1ccc(Oc2cnc3cc(Cl)ccc3n2)cc1)C(=O)O` (stereo unspecified) [Quizalofop] were 43.1 ± 5.6%, 28.1 ± 1.3% and 67.8 ± 5.7%.
`CNC(=C[N+](=O)[O-])NCCSCc1ccc(CN(C)C)o1` [Ranitidine]: under setting [3], the chemical recovery came to 65.6 ± 6.1%.
In turn, `O=C1NS(=O)(=O)c2ccccc21` [Saccharin] had a chemical recovery under setting [1] of 38.6 ± 7.1%.
For the compound `CC[C@@H](C(=O)[C@@H](C)[C@@H](O)[C@H](C)[C@@H]1O[C@@H]([C@@H](CC)C(=O)O)CC[C@@H]1C)[C@H]1O[C@]2(C=C[C@@H](O)[C@]3(CC[C@@](C)([C@H]4CC[C@](O)(CC)[C@H](C)O4)O3)O2)[C@H](C)C[C@@H]1C` [Salinomycin], the chemical recovery reads like this: under setting [1], 26.7 ± 6.9%; under setting [3], 51.9 ± 13%.
Take `CCCC[N+]1(C)[C@H]2CC(OC(=O)C(CO)c3ccccc3)C[C@H]1[C@H]1O[C@H]12` (stereo partly specified) [Scopolamine-N-butyl]: the chemical recovery reads like this: under setting [2], 42.2 ± 2.6%; under setting [1], 38.4 ± 3.4%; under setting [4], 44.2 ± 6.1%; under setting [3], 65.8 ± 3.2%.
Regarding `O=C(O)CCCCCCCCC(=O)O` [Sebacic-acid], the chemical recovery reads like this: under setting [2], 54.6 ± 13%; under setting [1], 48.9 ± 13%.
`C=CCC1(C(C)CCC)C(=O)NC(=O)NC1=O` (stereo unspecified) [Secobarbital]: the chemical recovery runs as follows: under setting [2], 53.8 ± 5%; under setting [1], 36.7 ± 1.2%; under setting [4], 61.1 ± 8.4%; under setting [3], 72.8 ± 5.8%.
For `CCNc1nc(NCC)[nH]c(=O)n1` [Simazine-2-Hydroxy], the chemical recovery reads like this: under setting [2], 20.1 ± 4.3%; under setting [1], 14.8 ± 5.5%; under setting [3], 75.6 ± 6%.
For `N[C@@H](CC(=O)N1CCn2c(nnc2C(F)(F)F)C1)Cc1cc(F)c(F)cc1F` [Sitagliptin], the chemical recovery under setting [2] is 33.4 ± 2.7%, the chemical recovery under setting [1] came to 30 ± 3.4% and the chemical recovery under setting [3] came out at 72.7 ± 3.6%.
Consider `CNC(=O)c1cc(Oc2ccc(NC(=O)Nc3ccc(Cl)c(C(F)(F)F)c3)cc2)ccn1` [Sorafenib], for which the chemical recovery reads like this: under setting [1], 61.3 ± 14%; under setting [3], 74.4 ± 5.8%.
In the case of `O=C1C[C@@H]2OCC=C3CN4CC[C@]56c7ccccc7N1[C@H]5[C@H]2[C@H]3C[C@H]46` [Strychnine], under setting [3], the chemical recovery was found to be 59.5 ± 4.5%.
With `O=C(O)CCCCCCC(=O)O` [Suberic-acid], the chemical recovery was found to be 99.8 ± 34% under setting [2] and 82.2 ± 2.5% under setting [1].
Regarding `OC[C@H]1O[C@H](O[C@]2(CCl)O[C@H](CCl)[C@@H](O)[C@@H]2O)[C@H](O)[C@@H](O)[C@H]1Cl` [Sucralose], the chemical recovery under setting [2] amounted to 23 ± 2.4%, the chemical recovery under setting [1] is 21.6 ± 1.4% and the chemical recovery under setting [4] came to 58.3 ± 3.9%.
For `Nc1ccc(S(=O)(=O)Nc2nccs2)cc1` [Sulfathiazole], the chemical recovery worked out at 31.1 ± 2.5% under setting [1], 51.1 ± 6.3% under setting [4] and 69.2 ± 3.2% under setting [3].
Regarding `CC(C)(C)C(O)(CCc1ccc(Cl)cc1)Cn1cncn1` (stereo unspecified) [Tebuconazole], the chemical recovery under setting [3] was 77.8 ± 3.1%.
Take `CCOP(=S)(OCC)SCSC(C)(C)C` [Terbufos]: under setting [1], the chemical recovery turned out to be 14.7 ± 4.8%.
With `CCNc1nc(NC(C)(C)C)[nH]c(=O)n1` [Terbuthylazine-2-hydroxy], the chemical recovery by setting is: under setting [2], 41.4 ± 3.8%; under setting [1], 35.5 ± 3.4%; under setting [4], 43.6 ± 5.5%; under setting [3], 76.7 ± 3.9%.
The compound `CC(=O)N(CCN(C(C)=O)C(C)=O)C(C)=O` [Tetraacetylethylenediamine] came in with a chemical recovery under setting [2] of 29.2 ± 6.4%.

For the origin of these results see the supplement of paper PMC10702517.
